In PubChem BioAssay (NCI):
Values joined by “and” are separate entries in the source; they are usually repeats but may differ in a detail not shown here. Equal entries are not always repeated.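 Where inhibition never reached the appropriate level, the endpoint shown equals the highest concentration tested. Otherwise, values were interpolated linearly from a five-concentration, 48-hour dose response in 96-well plates. Abbreviation: GI50, concentration required for 50% inhibition of growth. TGI marks complete inhibition of growth.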

Key:
Test in all cases: NCI anticancer screen, dose series, 48 h
TK-10 renal = test system: TK-10 renal
T-47D breast = test system: T-47D breast
MOLT-4 leukemia = test system: MOLT-4 leukemia
SN12C renal = test system: SN12C renal
SR leukemia = test system: SR leukemia
HCT-15 colon = test system: HCT-15 colon
NCI-H460 lung = test system: NCI-H460 lung
OVCAR-4 ovarian = test system: OVCAR-4 ovarian
NCI-H522 lung = test system: NCI-H522 lung
SF-268 CNS = test system: SF-268 CNS
786-0 renal = test system: 786-0 renal

Structure (SMILES) | TGI (TK-10 renal) | TGI (T-47D breast) | TGI (MOLT-4 leukemia) | TGI (SN12C renal) | TGI (SR leukemia) | TGI (HCT-15 colon) | TGI (NCI-H460 lung) | TGI (OVCAR-4 ovarian) | TGI (NCI-H522 lung) | TGI (SF-268 CNS) | TGI (786-0 renal) | GI50 (TK-10 renal) | GI50 (MOLT-4 leukemia) | GI50 (SN12C renal) | GI50 (HCT-15 colon) | GI50 (OVCAR-4 ovarian) | GI50 (NCI-H522 lung) | GI50 (SF-268 CNS)
O=C1CCCc2cc3c(cc21)CCC3C(=O)O (stereo not drawn) | > 100 µM | > 100 µM | > 100 µM | > 100 µM | > 100 µM | > 100 µM | > 100 µM | > 100 µM | > 100 µM | > 100 µM | > 100 µM | – | – | – | – | – | – | –
CC1OC(O[C@H]2CC[C@]3(C)[C@H]4CC=C5[C@@H]6[C@@H](C)[C@H](C)CC[C@]6(C(=O)O)CC[C@@]5(C(=O)O)[C@]4(C)CC[C@H]3C2(C)C)C(O)C(O)C1O (stereo partly drawn) | > 75 µM | > 75 µM | > 75 µM | > 75 µM | > 75 µM | > 75 µM | > 75 µM | > 75 µM | > 75 µM | > 75 µM | > 75 µM | – | – | – | – | – | – | –
CC1(C)OCC(C2OC(N3O[C@H](CI)C[C@@H]3c3ccccc3)C3OC(C)(C)OC23)O1 (stereo partly drawn) | > 100 µM | > 100 µM | – | > 100 µM | > 100 µM | > 100 µM | > 100 µM | > 100 µM | > 100 µM | > 100 µM | > 100 µM | – | – | – | – | – | – | –
Cc1cc2c(s1)C(=O)c1sccc1C2=O | 6.91 µM | 3.02 µM | > 22.4 µM | 1.25 µM | > 100 µM | 2.52 µM | 3.23 µM | 1.45 µM | 1.38 µM | 2.09 µM | 3.26 µM | – | – | – | – | – | – | –
C/C=C(/C)C(=O)O[C@H]1C(C)=C[C@]23C(=O)[C@@H](C=C(COC(C)=O)[C@@H](O)[C@]12O)[C@H]1[C@@H](C[C@H]3C)[C@@]1(C)OC(=O)/C(C)=C\C | 7.69 µM | 3.29 µM | 3.56 µM | 5.34 µM | 10.9 µM | 7.17 µM | 4.09 µM | 6.33 µM | 6.07 µM | 4.73 µM | 8.93 µM | – | – | – | – | – | – | –
C=C1C(=O)C23CC1C[C@H](OC(C)=O)C2C1(C)C(OC(C)=O)C[C@H](O)C(C)(C)[C@H]1C(O)[C@@H]3OC(C)=O (stereo partly drawn) | 17 µM | 24.8 µM | 8.64 µM | 20.7 µM | 27.4 µM | 25.7 µM | > 60 µM | 25.7 µM | 3.34 µM | 28.5 µM | 20.7 µM | – | – | – | – | – | – | –
CC(C)(C)N1NC1C1NN1C(C)(C)C (stereo not drawn) | > 100 µM | > 100 µM | > 100 µM | > 100 µM | > 100 µM | > 100 µM | > 100 µM | > 100 µM | > 100 µM | > 100 µM | > 100 µM | – | – | – | – | – | – | –
C[Si](C)(C)OC1c2[nH]c3ccccc3c2CN2C(=O)CCC12 (stereo not drawn) | > 100 µM | > 100 µM | > 100 µM | > 100 µM | > 100 µM | > 100 µM | > 100 µM | > 100 µM | > 100 µM | > 100 µM | > 100 µM | – | – | – | – | – | – | –
Cc1ccccc1N(C)S(=O)(=O)c1ccccc1[N+](=O)[O-] | > 100 µM | > 100 µM | > 100 µM | > 100 µM | > 100 µM | > 100 µM | > 100 µM | > 100 µM | > 100 µM | > 100 µM | > 100 µM | – | – | – | – | – | – | –
[N-]=[N+]=Nc1ccc2c(c1)Sc1ccccc1N2CCCCCl | > 100 µM | > 100 µM | > 100 µM | > 100 µM | > 100 µM | > 100 µM | > 100 µM | > 100 µM | > 100 µM | > 100 µM | > 100 µM | – | – | – | – | – | – | –
CCCCc1c2c(nc3c1CCC/C3=C\c1ccccc1)C(=O)C(CN(C)C)CC2 (stereo not drawn) | 29.6 µM | 14 µM | 11.5 µM | 43.1 µM | 9.17 µM | 20.7 µM | 34.5 µM | 22.9 µM | 30.1 µM | 35.6 µM | 23.9 µM | – | – | – | – | – | – | –
CCC(=O)COc1ccc(NC(NC(=O)C(C(F)(F)F)C(F)(F)F)(C(F)(F)F)C(F)(F)F)cc1 | > 100 µM | 68.8 µM | 44.8 µM | – | 37.1 µM | > 100 µM | > 100 µM | > 100 µM | 35.5 µM | 78.1 µM | 61.7 µM | – | – | – | – | – | – | –
CC1=C(OC2OC(CO)C(O)C(O)C2O)C(=O)C[C@H]2C1=CC[C@@H]1[C@@]2(C)C(=O)C[C@]2(C)[C@@H]([C@@](C)(O)C(=O)CCC(C)(C)O)[C@H](O)C[C@@]12C (stereo partly drawn) | > 100 µM | > 100 µM | > 100 µM | > 100 µM | > 100 µM | > 100 µM | > 100 µM | > 100 µM | > 100 µM | > 100 µM | > 100 µM | – | – | – | – | – | – | –
O=[N+]([O-])C(=C(N1CCOCC1)N1CCOCC1)/C(Cl)=C(\Cl)[N+](=O)[O-] | 3.89 µM | 4.39 µM | > 100 µM | 5.92 µM | > 100 µM | 8.18 µM | 70.7 µM | 30.7 µM | 2.89 µM | 22.9 µM | 9.76 µM | – | – | – | – | – | – | –
Cn1c2nc3ccccc3c-2cc2ccccc21 | 70.3 µM and > 100 µM | > 100 µM | 7.15 µM and 9.9 µM | 36.3 µM and 34.9 µM | 7.25 µM and 10.7 µM | 7.3 µM and 23.4 µM | 11.9 µM and 12.9 µM | 19 µM and 26.2 µM | 10.3 µM and 23.7 µM | 17 µM and 40.3 µM | > 100 µM | 7.63 µM and 31 µM | 1.38 µM and 2.97 µM | 3.14 µM and 6.46 µM | 1.14 µM and 4.06 µM | 3.81 µM and 10.7 µM | 2.07 µM and 6.03 µM | 3.95 µM and 8.47 µM
CC(=O)Nc1ccc2c(C)c3c4ccccc4n(C)c3nc2n1 | 94.8 µM | > 100 µM | 32.1 µM | 43.3 µM | 45.6 µM | 48.6 µM | 15.5 µM | – | 65.6 µM | 64.4 µM | 35.3 µM | – | – | – | – | – | – | –
Cc1cc(Cl)ccc1N=NC(=O)NNc1ccc(Cl)cc1C | 38.3 µM | 26.6 µM | 48.9 µM | 30.1 µM | 80.7 µM | 25.8 µM | 27.4 µM | 38.6 µM | 35.1 µM | 37.5 µM | 29.9 µM | – | – | – | – | – | – | –
O=C(CCCn1ccnc1[N+](=O)[O-])NCCn1ccnc1 | > 100 µM | > 100 µM | > 100 µM | > 100 µM | > 100 µM | > 100 µM | > 100 µM | – | > 100 µM | > 100 µM | > 100 µM | – | – | – | – | – | – | –
O=S1(=O)CCN(Cc2ccccc2)/C1=N\S(=O)(=O)c1ccc(Cl)cc1 | 31 µM | 39.5 µM | 49.9 µM | 33.3 µM | 59.9 µM | 37 µM | 48 µM | 36.2 µM | 29.9 µM | 31.4 µM | 34.5 µM | – | – | – | – | – | – | –
O=C1CC2(CCC(O)(c3ccc(Cl)cc3)C(C(=O)c3ccc(Cl)cc3)C2)C(=O)c2ccccc2N1 (stereo not drawn) | 39.2 µM | > 72.3 µM | 8.56 µM | 24.8 µM | > 100 µM | > 100 µM | > 100 µM | > 100 µM | > 100 µM | 17 µM | 4.24 µM | – | – | – | – | – | – | –
c1ccc(CCN(Cc2nc3ccccc3[nH]2)Cc2nc3ccccc3[nH]2)cc1 | 35.7 µM | 40.8 µM | 39.3 µM | 30.8 µM | 35.3 µM | 22.1 µM | 28.3 µM | 68.9 µM | 49.4 µM | 33.6 µM | 31.7 µM | – | – | – | – | – | – | –
CC1NC(/C(=C/c2ccccc2O)NC(=O)c2ccccc2)OC1=O (stereo not drawn) | > 50 µM | > 50 µM | > 50 µM | > 50 µM | > 50 µM | > 50 µM | – | > 50 µM | > 50 µM | – | > 50 µM | – | – | – | – | – | – | –
Cc1ccc(S(=O)(=O)NNC(=S)Nc2cccc3ccccc23)cc1 | > 100 µM | > 100 µM | > 100 µM | > 100 µM | > 100 µM | > 100 µM | > 100 µM | 66.8 µM | 46.6 µM | > 100 µM | > 100 µM | – | – | – | – | – | – | –
Cc1c2c(n(CCc3ccccc3)c1C)NN=C(C#N)S2(=O)=O | > 100 µM | > 100 µM | > 100 µM | > 100 µM | > 100 µM | > 100 µM | > 100 µM | > 100 µM | > 100 µM | > 100 µM | > 100 µM | – | – | – | – | – | – | –
O=C1N=C(c2ccccc2)O/C1=C\c1ccccc1 | > 100 µM | > 100 µM | > 100 µM | > 100 µM | > 100 µM | > 100 µM | > 100 µM | > 100 µM | > 100 µM | > 100 µM | > 100 µM | – | – | – | – | – | – | –
CSc1cc(Cl)c(C)cc1S(=O)(=O)NC(=O)NNc1ccc(F)c(Cl)c1 | – | > 100 µM | > 100 µM | > 100 µM | > 100 µM | > 100 µM | > 100 µM | > 100 µM | > 100 µM | > 100 µM | > 100 µM | – | – | – | – | – | – | –
O=[N+]([O-])c1cccc2nccc(NCC(O)CO)c12 (stereo not drawn) | 44 µM | 96.1 µM | > 80.6 µM | 41 µM | 28 µM | 22.4 µM | 26.3 µM | 43 µM | 26 µM | 67.9 µM | 35 µM | – | – | – | – | – | – | –
CC(=O)OC1COC(n2c(N)c(C#N)c(C)c(C#N)c2=S)C(OC(C)=O)C1OC(C)=O (stereo not drawn) | > 100 µM | > 100 µM | > 100 µM | > 100 µM | > 100 µM | > 100 µM | > 100 µM | – | > 100 µM | > 100 µM | > 100 µM | – | > 100 µM and 43.2 µM | – | – | – | – | –
CC(C)/C=N\n1c(N)c(C#N)c(C#N)c1C(C)C | > 100 µM | 66.3 µM | 63.4 µM | > 100 µM | > 100 µM | > 100 µM | – | 84.9 µM | > 100 µM | > 100 µM | > 100 µM | – | – | – | – | – | – | –
